Reference: PMC7503767, “Alkoxyamines Designed as Potential Drugs against Plasmodium and Schistosoma Parasites” (Molecules, 2020)
Like-named read-outs stand apart in the source and are kept apart here.

Legend:
Vero cells = test: Cytotoxicity assay (MTT); conditions: read-out: Cytotoxicity Mean IC50, Vero cell lines, 48 h, MTT
Experimental: Vero cells were cultured in MEM (Dutscher, Brumath, France) supplemented with 10% fetal bovine serum, 1× non-essential amino acids, 100 U/mL, 100 µg/mL penicillin/streptomycin, and 2 mM L-glutamine at 37 °C in a humidified 5% CO2 atmosphere. […] At this time, each well was microscope-examined for detection of possible precipitate formation prior to remove the supernatant by flicking the plate. 100 µL of a 0.5 mg/mL PBS-dissolved MTT tetrazolium (stock solution at 5 mg/mL) was then added to each well [48]. The plates were then incubated for 1 h at 37 °C and 5% CO2 prior to removing the supernatant and adding 100 µL of DMSO. Plates were gently shaken to dissolve formazan crystals resulting from the MTT tetrazolium reduction by living cells and read at 570 nm with BioTek µQuant Microplate Spectrophotometer.

[1] = test system: P. falciparum chloroquine-resistant strain FcB1-Columbia; test: Antiplasmodial screen at 10 µM and chemosensitivity assay (SYBR Green I), FcB1-Columbia; type: cell-based, Plasmodium falciparum
Adult S. mansoni = test: In vitro antischistosomal activity on adult worms; type: cell-based, Schistosoma mansoni; conditions: for Mean (±SD) survival time – Adult S. mansoni / Time for the death of 100% worms: 100 µg/mL; for Mean (±SD) survival time – Adult S. mansoni: observation up to 8 h (Table S1); for Time for the death of 100% worms / S. mansoni Mean Survival Time: adult S. mansoni, observation up to 8 h; for S. mansoni Mean Survival Time: single dose 100 µg/mL
From the text: The NMRI strain of Schistosoma mansoni was used for the experimentations. The parasite was maintained on an albino variety of Biomphalaria glabrata from Brazil (intermediate host) and in Golden Hamsters, Mesocricetus auratus (Janvier Labs, Le Genest-Saint-Isle, France). Detailed methods, for mollusk and hamster infections and for parasite recovery, were previously described.
Adult worms were recovered between 42 and 47 days after infection by hepatic perfusion technique. Twenty to fifty adult worms were disposed in 12-well Falcon® plate containing 2 mL of RPMI 1640 (supplemented with L-glutamine and Hepes 25 mM) and stored in an incubator chamber (37 °C; 5% CO2). Drug preparation started with dissolution of the drug in DMSO to give a 100 mg/mL stock solution. The dilution was complemented with Tween 80 and RPMI in order to obtain the following final ratio dilution: RPMI 1640/Tween 80/DMSO, 1000/0.95/3.8, v/v/v. The drug solution was added to Falcon plates that contained adult worms. The S. mansoni cultures were then incubated with each drug at a final concentration of 100 µg/mL. Positive control was carried out with a solution of praziquantel (Merck KGaA, Darmstadt, Germany) at a concentration of 100 µg/mL. Negative control was carried out with the same RPMI 1640/Tween 80/DMSO solution, but without any drug. Each test was performed in duplicate. Every hour, moving worms were counted in order to define the percentage of survivors. Parasites showing no body contractions during a 30 s observation were considered as dead. Observations were extended to 8 h. Mean survival times (± standard deviation) were calculated for each drug using Kaplan–Meier survival analyses.

[2] = Homolysis of the NO–C bond measured by EPR
Experimental: Homolysis rate constants kd’ were measured by EPR and estimated using Equation (1) as reported many times in the literature. Further, Ea and kd were estimated using Equation (2). (1) ln([nitroxide]∞−[nitroxide]t/[nitroxide]∞)=−kd·t (2) Ea=−RT ln([…] kd′ )

[3] = FcB1-Columbia strain, read-out: IC50 on P. falciparum

| SMILES | IC50 [1, 3] [µM] | Mean (±SD) survival time – Adult S. mansoni (Adult S. mansoni) [h] | Time for the death of 100% worms (Adult S. mansoni) [h] | other results |
| --- | --- | --- | --- | --- |
| CCOP(=O)(OCC)C(N(OC(CN)c1ccccc1)C(C)(C)C)C(C)(C)C (stereo not drawn) [(RR/SS)-1A] | > 10 | – | – | IC50 (Vero cells; listed as (RR/SS)-1A): > 100 µM |
| CCOP(=O)(OCC)C(N(OC(CNC(=O)C(F)(F)F)c1ccccc1)C(C)(C)C)C(C)(C)C (stereo not drawn) [(RR/SS)-1E] | > 10 | 5.0 ± 0.5 | 6 | – |
| CCOP(=O)(OCC)C(N(OC(C)c1cc[n+]([O-])cc1)C(C)(C)C)C(C)(C)C (stereo not drawn) [(RR/SS)-1d] | > 10 | > 8 | > 8 | – |
| CCOP(=O)(OCC)C(N(OC(CN)c1ccccn1)C(C)(C)C)C(C)(C)C (stereo not drawn) [(RR/SS)-1g] | > 10 | 1.9 ± 0.1 | 2 | – |
| CCOP(=O)(OCC)C(N(OC(C)c1ncc[nH]1)C(C)(C)C)C(C)(C)C (stereo not drawn) [(RR/SS)-1k] | > 10 | 1.0 ± 0.05 | 1 | S. mansoni Mean Survival Time (Adult S. mansoni): 1.0 ± 0.05 h |
| CCOP(=O)(OCC)C(N(OC(C)n1ccnc1)C(C)(C)C)C(C)(C)C (stereo not drawn) [(RR/SS)-1o] | 25 | 2.3 ± 0.2 | 3 | – |
| CCOP(=O)(OCC)C(N(OC(C)c1c[nH]cn1)C(C)(C)C)C(C)(C)C (stereo not drawn) [(RR/SS)-1p] | – | 1.0 ± 0.05 | 1 | IC50 (Vero cells): > 100 µM; S. mansoni Mean Survival Time (Adult S. mansoni): 1.0 ± 0.05 h |
| CCOP(=O)(OCC)C(N(OC(C)c1ccc([N+](=O)[O-])cc1)C(C)(C)C)C(C)(C)C (stereo not drawn) [(RR/SS)-1v] | > 10 | 3.4 ± 0.2 | 4 | – |
| CCOP(=O)(OCC)C(N(OC(C)c1ccc(N)cc1)C(C)(C)C)C(C)(C)C (stereo not drawn) [(RR/SS)-1w] | > 10 | 2.1 ± 0.1 | 3 | – |
| CCOP(=O)(OCC)C(N(OC(C)c1ccc(C(=O)OC)cc1)C(C)(C)C)C(C)(C)C (stereo not drawn) [(RR/SS)-1x] | > 10 | > 8 | > 8 | – |
| CCOP(=O)(OCC)C(N(OC(C)c1ccc(C(=O)O)cc1)C(C)(C)C)C(C)(C)C (stereo not drawn) [(RR/SS)-1y] | > 10 | > 8 | > 8 | – |
| CCOP(=O)(OCC)C(N(OC(C)c1cc(-c2ccccc2)cc(-c2ccccc2)c1)C(C)(C)CO)C(C)(C)C (stereo not drawn) [(RR/SS)-2G, Diethyl(1-((1-([1,1′:3′,1′′-terphenyl]-5′-yl)ethoxy)(1-hydroxy-2-methylpropan-2-yl)amino)-2,2-dimethylpropyl)phosphonate] | – | – | 7 | IC50 ([1]; Plasmodium falciparum, FCB1, read-out: IC50 on P. falciparum, FcB1-Columbia strain): > 10 µM; activation energy Ea ([2]; MeOH/water 2:1 pH = 7.0): 28.94 kcal/mol; re-estimated homolysis rate constant kd at 120 °C ([2]; MeOH/water 2:1 pH = 7.0): 19.5 10^−3 s^−1; homolysis rate constant kd′ ([2]; MeOH/water 2:1 pH = 7.0, 81 °C): 3.3 10^−4s^−1; half-life ([2]; buffer, pH 7, half-lifetime t1/2 at 37 °C, MeOH/water 2:1 pH = 7.0): 295 h; half-life ([2]; half-lifetime t1/2 at 37 °C, t-BuPh): 180 h; activation energy Ea ([2]; t-BuPh): 28.87 kcal/mol; re-estimated homolysis rate constant kd at 120 °C ([2]; t-BuPh): 21.1 10^−3 s^−1; homolysis rate constant kd′ ([2]; t-BuPh, 81 °C): 3.8 10^−4s^−1 |
| CCOP(=O)(OCC)C(N(OC(CN)c1ccccc1)C(C)(C)C)C(C)(C)C (stereo not drawn) [(RS/SR)-1A] | – | 1.0 ± 0.05 | 1 | IC50 (Vero cells; listed as (RS/SR)-1A): 21 µM; S. mansoni Mean Survival Time (Adult S. mansoni): 1.0 ± 0.05 h |
| CCOP(=O)(OCC)C(N(OC(CO)c1ccccc1)C(C)(C)C)C(C)(C)C (stereo not drawn) [(RS/SR)-1C] | > 10 | 1.4 ± 0.2 | 2 | – |
| CCOP(=O)(OCC)C(N(OC(COC)c1ccccc1)C(C)(C)C)C(C)(C)C (stereo not drawn) [(RS/SR)-1D] | > 10 | 3.8 ± 0.5 | 6 | – |
| CCOP(=O)(OCC)C(N(OC(CN)c1cc[n+]([O-])cc1)C(C)(C)C)C(C)(C)C (stereo not drawn) [(RS/SR)-1e] | > 10 | > 8 | > 8 | – |
| CCOP(=O)(OCC)C(N(OC(CN)c1ccccn1)C(C)(C)C)C(C)(C)C (stereo not drawn) [(RS/SR)-1g] | > 10 | 2.6 ± 0.3 | 4 | – |
| CCOP(=O)(OCC)C(N(OC(CNC(=O)C(F)(F)F)c1ccccn1)C(C)(C)C)C(C)(C)C (stereo not drawn) [(RS/SR)-1h] | > 10 | > 8 | > 8 | – |
| CCOP(=O)(OCC)C(N(OC(CO)c1ccccn1)C(C)(C)C)C(C)(C)C (stereo not drawn) [(RS/SR)-1i] | > 10 | > 8 | > 8 | – |
| CCOP(=O)(OCC)C(N(OC(C)c1ncc[nH]1)C(C)(C)C)C(C)(C)C (stereo not drawn) [(RS/SR)-1k] | > 10 | > 8 | > 8 | – |
| CCOP(=O)(OCC)C(N(OC(C)n1ccnc1)C(C)(C)C)C(C)(C)C (stereo not drawn) [(RS/SR)-1o] | 25 | 1.1 ± 0.1 | 2 | – |
| CCOP(=O)(OCC)C(N(OC(C)c1c[nH]cn1)C(C)(C)C)C(C)(C)C (stereo not drawn) [(RS/SR)-1p] | 20.5 | 1.4 ± 0.3 | 3 | – |
| CCOP(=O)(OCC)C(N(OC(C)c1ccc([N+](=O)[O-])cc1)C(C)(C)C)C(C)(C)C (stereo not drawn) [(RS/SR)-1v] | > 10 | > 8 | > 8 | – |
| CCOP(=O)(OCC)C(N(OC(C)c1ccc(N)cc1)C(C)(C)C)C(C)(C)C (stereo not drawn) [(RS/SR)-1w] | > 10 | > 8 | > 8 | – |
| CCOP(=O)(OCC)C(N(OC(C)c1ccc(C(=O)OC)cc1)C(C)(C)C)C(C)(C)C (stereo not drawn) [(RS/SR)-1x] | > 10 | 2.4 ± 0.3 | 4 | – |
| CCOP(=O)(OCC)C(N(OC(C)c1ccccc1)C(C)(C)CO)C(C)(C)C (stereo not drawn) [(RS/SR)-2z] | > 10 | > 8 | > 8 | – |
